In ChEMBL document CHEMBL4665683, “Oxygenated Geosmins and Plant-like Eudesmanes from a Bacterial Mangrove Endophyte” (2020):

How the values were obtained:
Format in all cases: functional
[1] = system: Staphylococcus aureus; test: Antibacterial activity against Staphylococcus aureus SG511 assessed as zone of inhibition after 24 hrs by disk diffusion method
[2] = system: Pseudomonas aeruginosa; test: Antibacterial activity against Pseudomonas aeruginosa BG137 B7 assessed as zone of inhibition after 24 hrs by disk diffusion method
[3] = system: Mycolicibacterium vaccae; test: Antibacterial activity against Mycobacterium vaccae IMET 10670 assessed as zone of inhibition after 24 hrs by disk diffusion method
[4] = system: Pseudomonas aeruginosa; test: Antibacterial activity against Pseudomonas aeruginosa K799/61 assessed as zone of inhibition after 24 hrs by disk diffusion method
[5] = system: Enterococcus faecalis; test: Antibacterial activity against vancomycin-resistant Enterococcus faecalis 1528 R10 assessed as zone of inhibition after 24 hrs by disk diffusion method
[6] = system: Escherichia coli; test: Antibacterial activity against Escherichia coli SG458 assessed as zone of inhibition after 24 hrs by disk diffusion method
[7] = system: Staphylococcus aureus; test: Antibacterial activity against methicillin-resistant Staphylococcus aureus 134/94 R9 assessed as zone of inhibition after 24 hrs by disk diffusion method
[8] = system: Bacillus subtilis; test: Antibacterial activity against Bacillus subtilis ATCC 6633 assessed as zone of inhibition after 24 hrs by disk diffusion method
[9] = system: Sporobolomyces salmonicolor; test: Antifungal activity against Sporidiobolus salmonicolor SBUG 549 assessed as zone of inhibition after 24 hrs by disk diffusion method
[10] = system: Penicillium chrysogenum; test: Antifungal activity against Penicillium chrysogenum JP36 assessed as zone of inhibition after 24 hrs by disk diffusion method

SMILES	inhibition zone (IZ) [1] [mm]	inhibition zone (IZ) [2] [mm]	inhibition zone (IZ) [3] [mm]	inhibition zone (IZ) [4] [mm]	inhibition zone (IZ) [5] [mm]	inhibition zone (IZ) [6] [mm]	inhibition zone (IZ) [7] [mm]	inhibition zone (IZ) [8] [mm]	inhibition zone (IZ) [9] [mm]	inhibition zone (IZ) [10] [mm]
C[C@H]1C(=O)CC[C@@]2(C)CCCC[C@]12O	0	10	0	10	10	0	0	10	0	0
C[C@H]1CCC[C@@]2(C)CC[C@@H](O)C[C@]12O	0	10	0	10	0	10	0	10	0	0
O=C(N[C@H](CO)[C@H](O)c1ccc([N+](=O)[O-])cc1)C(Cl)Cl [CHLORAMPHENICOL]	17	24	20	24	17	23	0	29		
C[C@@H]1[C@H](O)[C@@H](C)/C=C/C=C/C=C/C=C/C=C/C=C/C=C/[C@H](O[C@@H]2O[C@H](C)[C@@H](O)[C@H](N)[C@@H]2O)C[C@@H]2O[C@](O)(C[C@@H](O)C[C@@H](O)[C@H](O)CC[C@@H](O)C[C@@H](O)CC(=O)O[C@H]1C)C[C@H](O)[C@H]2C(=O)O [AMPHOTERICIN B]			13						13	17
C[C@H]1CCC[C@@]2(C)CC[C@@H](C(C)(C)O)C[C@]12O	12	11	14	11	11	10	11	12	12	12
